Laboratory results: ChEMBL document CHEMBL1156411, “New axane and oppositane sesquiterpenes from Teclea nobilis” (J Nat Prod, 2002)
The source made the active and inactive calls.

What was measured:
Type in all cases: functional, organism-based
Staphylococcus aureus [1] = assay: Antimicrobial activity against Staphylococcus aureus
Plasmodium falciparum [2] = assay: Antiplasmodial activity against Plasmodium falciparum D6
Cryptococcus neoformans = assay: Antimicrobial activity against Cryptococcus neoformans
Staphylococcus aureus [3] = assay: Antimicrobial activity against methicillin-resistant Staphylococcus aureus
Candida albicans = assay: Antimicrobial activity against Candida albicans
Plasmodium falciparum [4] = assay: Antiplasmodial activity against Plasmodium falciparum W2

Measured: Activity

C=C1CC[C@@H](O)[C@]2(C)CC[C@H](C(=O)C(C)C)[C@@H]12
inactive: Staphylococcus aureus [1] | Plasmodium falciparum [2] | Cryptococcus neoformans | Staphylococcus aureus [3] | Candida albicans | Plasmodium falciparum [4]

C=C1CC[C@H](O)[C@@]2(C)CC[C@H](C(=O)C(C)C)[C@@H]12
inactive: Staphylococcus aureus [1] | Plasmodium falciparum [2] | Cryptococcus neoformans | Staphylococcus aureus [3] | Candida albicans | Plasmodium falciparum [4]
